According to ChEMBL document CHEMBL3044926, “Controlling powdery mildew on cucurbit rootstock seedlings in the greenhouse with fungicides and biofungicides” (Crop Prot, 2012):

Columns and labels:
Podosphaera xanthii [1] = assay: (§1) Fungicidal activity against Podosphaera xanthii (powdery mildew) inoculated in Lagenaria siceraria Emphasis continuously after first drug application assessed as disease severity on upper surface areas of cotyledons at 98.2% in 11.99 g/L applied thrice at 5-days intervals measured 5 days after third application under green house conditions (water Rvb = 36.8%); format: functional
Lagenaria siceraria [2] = assay: Phytotoxicity against Lagenaria siceraria 'Emphasis' rootstock seedlings; format: organism-based; conditions: in vivo
Podosphaera xanthii [3] = assay: as §1, with “severity” for “severity on upper surface areas of cotyledons”, “53.5%)” for “36.8%)”; format: functional
Podosphaera xanthii [4] = assay: (§2) Fungicidal activity against Podosphaera xanthii (powdery mildew) inoculated in Lagenaria siceraria Emphasis continuously after first drug application assessed as incidence of disease symptoms on hypocotyls or upper or lower sides of cotyledons at 98.2% in 11.99 g/L applied thrice at 5-days intervals measured 5 days after third application under green house conditions (water Rvb = 100%); format: functional
Podosphaera xanthii [5] = assay: (§3) Fungicidal activity against Podosphaera xanthii (powdery mildew) inoculated in inter-specific squash hybrid Strong tosa (Cucurbita moschata x Cucurbita maxima) rootstock seedlings for 7 days prior to drug application assessed as disease severity on lower surface areas of cotyledonsat 98.2% in 11.99 g/L applied once measured 7 days post-drug dose under greenhouse conditions (water Rvb = 5.1%); format: functional
[6] = tested on: Cucurbita maxima x Cucurbita moschata; assay: Phytotoxicity against inter-specific squash hybrid Cucurbita moschata x Cucurbita maxima (Strong tosa) rootstock seedlings assessed as stunting; format: organism-based; conditions: in vivo
Podosphaera xanthii [7] = assay: as §1, with “lower” for “upper”, “13.9%)” for “36.8%)”; format: functional
Podosphaera xanthii [8] = assay: as §3, with “at” for “on lower surface areas of cotyledonsat”, “17.5%)” for “5.1%)”; format: functional
Podosphaera xanthii [9] = assay: Fungicidal activity against Podosphaera xanthii (powdery mildew) inoculated in squash (Cucurbita pepo) rootstock seedlings continuously after first drug application assessed as incidence of disease symptoms on hypocotyls or upper or lower sides of cotyledons at 98.2% in 11.99 g/L applied thrice at 5-days intervals measured 5 days after third application under green house conditions (water Rvb = …; format: functional
Lagenaria siceraria [10] = assay: Phytotoxicity against Lagenaria siceraria 'Emphasis' rootstock seedlings assessed as stunting; format: organism-based; conditions: in vivo
Podosphaera xanthii [11] = assay: as §3, with “upper” for “lower”, “10.2%)” for “5.1%)”; format: functional
Podosphaera xanthii [12] = assay: Fungicidal activity against Podosphaera xanthii (powdery mildew) inoculated in inter-specific squash hybrid Strong tosa (Cucurbita moschata x Cucurbita maxima) rootstock seedlings for 7 days prior to drug application assessed as incidence of disease symptoms on hypocotyls or upper or lower sides of cotyledons at 98.2% in 11.99 g/L applied once measured 7 days post-drug dose under greenhouse …; format: functional
Podosphaera xanthii [13] = assay: as §1, with “squash (Cucurbita pepo) rootstock seedlings” for “Lagenaria siceraria Emphasis”, “severity” for “severity on upper surface areas of cotyledons”, “3.9%)” for “36.8%)”; format: functional
[14] = tested on: Cucurbita maxima x Cucurbita moschata; assay: Phytotoxicity against inter-specific squash hybrid Cucurbita moschata x Cucurbita maxima (Strong tosa) rootstock seedlings; format: organism-based; conditions: in vivo
Podosphaera xanthii [15] = assay: as §3, with “upper” for “lower”, “38.7%” for “98.2%”, “0.62 ml/L” for “11.99 g/L”, “10.2%)” for “5.1%)”; format: functional
Lagenaria siceraria [16] = assay: Phytotoxicity against Lagenaria siceraria 'Emphasis' rootstock seedlings assessed as stunted growth; format: organism-based; conditions: in vivo
[17] = tested on: Cucurbita maxima x Cucurbita moschata; assay: Phytotoxicity against inter-specific squash hybrid Cucurbita moschata x Cucurbita maxima (Strong tosa) rootstock seedlings assessed as stunted growth; format: organism-based; conditions: in vivo
Podosphaera xanthii [18] = assay: as §3, with “at 38.7%” for “on lower surface areas of cotyledonsat 98.2%”, “0.62 ml/L” for “11.99 g/L”, “17.5%)” for “5.1%)”; format: functional
Podosphaera xanthii [19] = assay: Fungicidal activity against Podosphaera xanthii (powdery mildew) inoculated in squash (Cucurbita pepo) rootstock seedlings continuously after first drug application assessed as incidence of disease symptoms on hypocotyls or upper or lower sides of cotyledons at 38.7% in 0.62 ml/L applied thrice at 5-days intervals measured 5 days after third application under green house conditions (water Rvb = …; format: functional
Lagenaria siceraria [20] = assay: Phytotoxicity against Lagenaria siceraria 'Emphasis' rootstock seedlings assessed as seedlings with stunted growth; format: organism-based; conditions: in vivo
Podosphaera xanthii [21] = assay: as §1, with “severity” for “severity on upper surface areas of cotyledons”, “38.7%” for “98.2%”, “0.62 ml/L” for “11.99 g/L”, “53.5%)” for “36.8%)”; format: functional
Podosphaera xanthii [22] = assay: (§4) Fungicidal activity against Podosphaera xanthii (powdery mildew) inoculated in inter-specific squash hybrid Strong tosa (Cucurbita moschata x Cucurbita maxima) rootstock seedlings continuously after first drug application assessed as disease severity at 38.7% in 0.62 ml/L applied thrice at 5-days intervals measured 5 days after third application under green house conditions (water Rvb = 4.2%); format: functional
Podosphaera xanthii [23] = assay: Fungicidal activity against Podosphaera xanthii (powdery mildew) inoculated in inter-specific squash hybrid Strong tosa (Cucurbita moschata x Cucurbita maxima) rootstock seedlings for 7 days prior to drug application assessed as incidence of disease symptoms on hypocotyls or upper or lower sides of cotyledons at 38.7% in 0.62 ml/L applied once measured 7 days post-drug dose under greenhouse …; format: functional
[24] = tested on: Cucurbita maxima x Cucurbita moschata; assay: Phytotoxicity against inter-specific squash hybrid Cucurbita moschata x Cucurbita maxima (Strong tosa) rootstock seedlings assessed as seedlings with stunted growth; format: organism-based; conditions: in vivo
Podosphaera xanthii [25] = assay: as §3, with “38.7%” for “98.2%”, “0.62 ml/L” for “11.99 g/L”; format: functional
Podosphaera xanthii [26] = assay: Fungicidal activity against Podosphaera xanthii (powdery mildew) inoculated in inter-specific squash hybrid Strong tosa (Cucurbita moschata x Cucurbita maxima) rootstock seedlings continuously after first drug application assessed as incidence of disease symptoms on hypocotyls or upper or lower sides of cotyledons at 38.7% in 0.62 ml/L applied thrice at 5-days intervals measured 5 days after …; format: functional
Podosphaera xanthii [27] = assay: as §1, with “lower” for “upper”, “38.7%” for “98.2%”, “0.62 ml/L” for “11.99 g/L”, “13.9%)” for “36.8%)”; format: functional
Podosphaera xanthii [28] = assay: as §1, with “38.7%” for “98.2%”, “0.62 ml/L” for “11.99 g/L”; format: functional
Podosphaera xanthii [29] = assay: as §4, with “in” for “in inter-specific”, “squash” for “squash hybrid Strong tosa”, “pepo)” for “moschata x Cucurbita maxima)”, “3.9%)” for “4.2%)”; format: functional
Podosphaera xanthii [30] = assay: as §2, with “38.7%” for “98.2%”, “0.62 ml/L” for “11.99 g/L”; format: functional
Podosphaera xanthii [31] = assay: (§5) Fungicidal activity against Podosphaera xanthii (powdery mildew) inoculated in squash (Cucurbita pepo) rootstock seedlings continuously after first drug application assessed as disease severity at 45% in 0.6 g/L applied thrice at 5-days intervals measured 5 days after third application under green house conditions (water Rvb = 3.9%); format: functional
Podosphaera xanthii [32] = assay: as §3, with “at 45%” for “on lower surface areas of cotyledonsat 98.2%”, “0.6” for “11.99”, “17.5%)” for “5.1%)”; format: functional
Podosphaera xanthii [33] = assay: Fungicidal activity against Podosphaera xanthii (powdery mildew) inoculated in squash (Cucurbita pepo) rootstock seedlings continuously after first drug application assessed as incidence of disease symptoms on hypocotyls or upper or lower sides of cotyledons at 45% in 0.6 g/L applied thrice at 5-days intervals measured 5 days after third application under green house conditions (water Rvb = …; format: functional
Podosphaera xanthii [34] = assay: as §3, with “upper” for “lower”, “45%” for “98.2%”, “0.6” for “11.99”, “10.2%)” for “5.1%)”; format: functional
Podosphaera xanthii [35] = assay: as §3, with “45%” for “98.2%”, “0.6” for “11.99”, “rvb” for “Rvb”; format: functional
Podosphaera xanthii [36] = assay: Fungicidal activity against Podosphaera xanthii (powdery mildew) inoculated in inter-specific squash hybrid Strong tosa (Cucurbita moschata x Cucurbita maxima) rootstock seedlings for 7 days prior to drug application assessed as incidence of disease symptoms on hypocotyls or upper or lower sides of cotyledons at 45% in 0.6 g/L applied once measured 7 days post-drug dose under greenhouse …; format: functional
Podosphaera xanthii [37] = assay: as §3, with “upper” for “lower”, “46.1%” for “98.2%”, “1.50” for “11.99”, “10.2%)” for “5.1%)”; format: functional, organism-based
Podosphaera xanthii [38] = assay: Fungicidal activity against Podosphaera xanthii (powdery mildew) inoculated in squash (Cucurbita pepo) rootstock seedlings continuously after first drug application assessed as incidence of disease symptoms on hypocotyls or upper or lower sides of cotyledons at 46.1% in 1.50 g/L applied thrice at …; format: functional, organism-based
Podosphaera xanthii [39] = assay: as §5, with “46.1%” for “45%”, “1.50” for “0.6”; format: functional, organism-based
Podosphaera xanthii [40] = assay: Fungicidal activity against Podosphaera xanthii (powdery mildew) inoculated in inter-specific squash hybrid Strong tosa (Cucurbita moschata x Cucurbita maxima) rootstock seedlings for 7 days prior to drug application assessed as incidence of disease symptoms on hypocotyls or upper or lower sides of …; format: functional, organism-based
Podosphaera xanthii [41] = assay: as §3, with “at 46.1%” for “on lower surface areas of cotyledonsat 98.2%”, “1.50” for “11.99”, “17.5%)” for “5.1%)”; format: functional, organism-based
Podosphaera xanthii [42] = assay: as §3, with “46.1%” for “98.2%”, “1.50” for “11.99”; format: functional, organism-based

In the case of `S1SSSSSSS1` [SULFUR], the Activity (Podosphaera xanthii [1]) is reported as 3%, the Activity (Lagenaria siceraria [2]) is reported as “Non-toxic” and the Activity (Podosphaera xanthii [3]) is reported as 3.7%. The Activity (Podosphaera xanthii [4]) was 34.9%, the Activity (Podosphaera xanthii [5]) was 0.7% and the Activity [6] was “Non-toxic”. For the same compound, the Activity (Podosphaera xanthii [7]) was 0.7%, the Activity (Podosphaera xanthii [8]) was 0.9% and the Activity (Podosphaera xanthii [9]) was 0%. For the same compound, the Activity (Lagenaria siceraria [10]) was “Non-toxic”, the Activity (Podosphaera xanthii [11]) was 0.03% and the Activity (Podosphaera xanthii [12]) was 14.6%. For the same compound, the Activity (Podosphaera xanthii [13]) was 0.02% and the Activity [14] was “Non-toxic”.

For `CC(C)(C)C(O)(CCc1ccc(Cl)cc1)Cn1cncn1` (stereo not drawn) [TEBUCONAZOLE], the Activity (Podosphaera xanthii [15]) was 0.2%, the “inhibition (INH)” value (Lagenaria siceraria [16]) was 33% and the “inhibition (INH)” value [17] was 33%. It also gave an Activity (Podosphaera xanthii [18]) of 0.5%, an Activity (Podosphaera xanthii [19]) of 0% and an Activity (Lagenaria siceraria [20]) of 100%. For the same compound, the Activity (Podosphaera xanthii [21]) was 0.7%, the Activity (Podosphaera xanthii [22]) was 0.005% and the Activity (Podosphaera xanthii [23]) was 34.9%. It also gave an Activity [24] of 71%, an Activity (Podosphaera xanthii [25]) of 0.2% and an Activity (Podosphaera xanthii [26]) of 0%. It also gave an Activity (Podosphaera xanthii [27]) of 0%, an Activity (Podosphaera xanthii [28]) of 0.5% and an Activity (Podosphaera xanthii [29]) of 0%. For the same compound, the Activity (Podosphaera xanthii [30]) was 5.6%.

`COC(=O)NC(=S)Nc1ccccc1NC(=S)NC(=O)OC` [THIOPHANATE METHYL] gave an Activity (Podosphaera xanthii [31]) of 3.2%, an Activity (Podosphaera xanthii [32]) of 7.4% and an Activity (Podosphaera xanthii [33]) of 90.8%. For the same compound, the Activity (Lagenaria siceraria [2]) was “Non-toxic”, the Activity (Podosphaera xanthii [34]) was 3.9% and the Activity (Podosphaera xanthii [35]) was 3%. The Activity [14] was “Non-toxic” and the Activity (Podosphaera xanthii [36]) was 85.4%.

With COPPER HYDROXIDE [listing 1 of 2 here] the Activity (Lagenaria siceraria [2]) was “Non-toxic”, the Activity [6] was “Non-toxic” and the Activity (Lagenaria siceraria [10]) was “Non-toxic”. For the same compound, the Activity [14] was “Non-toxic”.

Compound COPPER HYDROXIDE [listing 2 of 2 here] has an Activity (Podosphaera xanthii [37]) of 8.2%, an Activity (Podosphaera xanthii [38]) of 9.2% and an Activity (Podosphaera xanthii [39]) of 0.21%. It also gave an Activity (Podosphaera xanthii [40]) of 97.7%, an Activity (Podosphaera xanthii [41]) of 13.6% and an Activity (Podosphaera xanthii [42]) of 4.3%.
